Measurements published in patent US20130150598A1, “USE OF 25-HYDROXY-VITAMIN D3 TO AFFECT HUMAN MUSCLE PHYSIOLOGY” (DSM IP ASSETS B.V., priority 2008, published 2013).

Columns and labels:
[1] = at the safe upper level of 250 μg/day; cited from earlier work
C57BL/6J mice = assay: Muscle hypertrophy model (gastrocnemius removal) and endurance exercise capacity test; format: in vivo
Excerpt: The objective of this study was to test the effects of 25-OH D3 in a muscle hypertrophy model and in an endurance exercise capacity test in C57BL/6J mice. It is recognized in the art that removal of the gastrocnemius muscle induces compensatory hypertrophy in the soleus and plantaris muscles by multiple mechanisms leading to improved muscle strength and leg power.
Two groups of 10 animals were anesthetized and the left hindlimb of the animals was fixed. All animals received an analgesic. A small incision was made through the skin over the gastrocnemius muscle. The complete gastrocnemius muscle and the tendons were exposed. Both heads of the gastrocnemius muscle were carefully dissected from the underlying intact muscles and care was taken not to rupture nerves and vessels. The skin was closed with a silk suture and the animals were returned into the cages. After recovering from anesthesia the animals could move directly without problems in their cages. Animals were treated for three weeks by gavage with 25-OH D3 at a daily dosage of 50 μg/kg and the control group received vehicle. At the end of the study endurance exercise capacity of all animals was tested on a rodent treadmill.

[2] = system: healthy, postmenopausal women; assay: Clinical trial: muscle function (repeated sit-to-stand, timed up & go); format: in vivo, human; settings: for Muscle function, repeated sit-to-stand, change vs. baseline / Muscle function, timed-up-and-go, change vs. baseline: daily 20 μg per day / weekly 140 μg per week, oral
Excerpt: (§1) Each group included five subjects. They are followed for four months in Zurich, Switzerland during the winter.
(§2) Equimolar quantities of both substances were investigated. […] As the maximum pre-existing baseline concentration of 25-OH D3 will be 50 nmol/L, it is not anticipated that subjects will approach the range where disturbance in Ca^2+ homeostasis has been observed.
(§3) Each dosage is consumed orally at breakfast. The duration of the study is four months for the “Daily” and “Weekly” groups. Subjects enrolled in the “Bolus” group consume orally a single dosage at the second study visit.
(§4) Muscle strength and function were assessed by the following standard performance tests: knee flexor and extensor strength, repeated sit-to-stand test and timed up & go (TUG) in Week 1 on visit 2 (baseline) and at study end on visit 15. Muscle strength was measured as knee extensor and flexor in Newtons (kiloponds). TUG is a measure of functional mobility including muscle strength, gait speed, and balance and is assessed in seconds. The repeated sit-to-stand is a functional test and measured in seconds.

[3] = system: gastrocnemius muscle gene expression (mRNA); assay: Gene chip analysis of gastrocnemius muscle in hindlimb unloaded (tail suspension) skeletal muscle atrophy model; format: in vivo, BalbC mice; settings: for Differentially expressed muscle genes compared to HU: selected skeletal muscle genes
Excerpt: Initially this model was established in rats for simulating spaceflight in humans and is commonly used in other scientific fields to study the loss of skeletal muscle mass or bone. The results are considered indicative of human conditions such as sarcopenia (degenerative loss of skeletal muscle mass and strength during the process of ageing) or immobilization of skeletal muscle (e.g. after prolonged bed rest due to fractures, surgery or trauma). Methods For our study, nine month old BalbC female mice were randomized at the beginning of the study into four groups with 10 animals per group • 1. […] The animals were placed in special cages for duration of seven days; all mice were housed separately and had free access to feed and water ad libidum. […] At the end of the study the gastrocnemius muscle was taken out and directly frozen in liquid nitrogen for further analysis. […] Total RNA was isolated using the commonly used Trizol protocol. The RNA was quantified by using spectrophotometric analysis. The integrity of total RNA samples was also assessed qualitatively on an Agilent 2100 Bioanalyzer. RNA was then prepared for the one cycle cDNA synthesis. A poly-A RNA control is used for this step to provide exogenous positive controls to monitor the entire eukaryotic target labelling process. The first cDNA synthesis is done, and after the second strand cDNA synthesis the cDNA is cleaned up of double-stranded cDNA. A biotin labelled cRNA is then synthesised, cleaned up and quantified using a spectrophotometer at 260/280 nm. It is important that cRNA target is fragmented before hybridization onto a GeneChip probe arrays to obtain optimal assay sensitivity. After fragmentation the probes are hybridized on the chips (Affymetrix Mouse 430-2 chips). The chips are washed and stained in the fluidics station of Affymetrix and scanned in the gene chip scanner. The data is then transferred from the scanner for further analysis using software from Genedata (Expressionist 5.0: […] Analyst). Data interpretation and pathway analysis was done with the online version of the GeneGo Metacore package ([…] evaluates microarray data for quality issues and flags problematic measurements. It provides a set of normalization algorithms and validated condensing methods to automatically pre-process and summarize raw microarray data for subsequent statistical analysis.

[4] = system: healthy, postmenopausal women; assay: Clinical trial: muscle strength (knee extensor and flexor strength); format: in vivo, human; settings: 4 months; for Muscle strength, knee extension (best value), change vs. baseline / Muscle strength, knee extension (mean value), change vs. baseline / Muscle strength, knee flexion (best value), change vs. baseline / Muscle strength, knee flexion (mean value), change vs. baseline: daily 20 μg per day / weekly 140 μg per week, oral
Excerpt: as §1, §2, §3, §4

[5] = GLM least square means, % time needed adjusted for baseline function, age, BMI, 4 months
[6] = GLM least square means, % improvement adjusted for baseline strength, age, BMI

## Vitamin D
[1]
  Blood concentration of 25-hydroxyvitamin D after ingestion as dietary supplement: about 200 nmol/L

## C=C1CC[C@H](O)C/C1=C/C=C1\CCC[C@]2(C)[C@@H]([C@H](C)CCCC(C)(C)O)CC[C@@H]12 [25-OH D3, 25-hydroxyvitamin D3]
C57BL/6J mice; 50 μg/kg/day gavage, 3 weeks, control 1.82
  Soleus-Plantaris muscle weight/body weight: 1.94 mg/g
C57BL/6J mice; 50 μg/kg/day gavage, 3 weeks, control 5.25
  Soleus wet weight: 6.37 mg
C57BL/6J mice; 50 μg/kg/day gavage, 3 weeks, control 31.68
  Plantaris wet weight: 33.24 mg
C57BL/6J mice; computer tomography, 50 μg/kg/day, 3 weeks, control 19.90
  Muscle cross-sectional area: 20.98 mm^2
C57BL/6J mice; computer tomography, 50 μg/kg/day, 3 weeks, control 22.78
  Total leg cross-sectional area: 24.04 mm^2
C57BL/6J mice; in words
  Skeletal mass by computer tomography of muscle and total leg area: increases skeletal mass
  Soleus-plantaris muscle weight/body weight ratio compared to control: increased
  Wet weight of the soleus and plantaris muscles compared to control animals: increased
C57BL/6J mice; in words, longer running distance and time
  Endurance exercise capacity compared to control mice: increased endurance exercise capacity
C57BL/6J mice; rodent treadmill, 50 μg/kg/day, 3 weeks, control 37.6
  Running time: 41.0 min
C57BL/6J mice; rodent treadmill, 50 μg/kg/day, 3 weeks, control 986.0
  Running distance: 1078.4 m
[2]; [5]
  Muscle function, repeated sit-to-stand, change vs. daily/weekly Vitamin D3: 13.9%
  Muscle function, timed-up-and-go, change vs. daily/weekly Vitamin D3: 8.4%
[2]; 4 months
  Muscle function, repeated sit-to-stand, change vs. baseline: 0.63 s
  Muscle function, timed-up-and-go, change vs. baseline: 0.27 s
[2]; unadjusted analysis across four lower extremity tests
  Likelihood of maintaining or improving lower extremity strength and function compared to Vitamin D3: 2.8 fold
[3]; Venn overlap, FIG. 2 / FIG. 3
  Share of the group's differentially expressed probe sets also differentially expressed in 25-OH D3+Vitamin D3 group: ~61%
[3]
  Differentially expressed muscle genes compared to HU: Desmin; dystonin; myocyte enhancer factor 2A;
[4]; [6]
  Muscle strength, knee extension (best value), change vs. daily/weekly Vitamin D3: 17.6%
  Muscle strength, knee extension (mean value), change vs. daily/weekly Vitamin D3: 17.0%
  Muscle strength, knee flexion (best value), change vs. daily/weekly Vitamin D3: 4.7%
  Muscle strength, knee flexion (mean value), change vs. daily/weekly Vitamin D3: 3.1%
[4]
  Muscle strength, knee extension (best value), change vs. baseline: 13.6 Newton
  Muscle strength, knee extension (mean value), change vs. baseline: 13.0 Newton
  Muscle strength, knee flexion (best value), change vs. baseline: 7.2 Newton
  Muscle strength, knee flexion (mean value), change vs. baseline: 7.9 Newton

## C=C1CC[C@H](O)C/C1=C/C=C1\CCC[C@]2(C)[C@@H]([C@H](C)CCCC(C)C)CC[C@@H]12 [Vitamin D3, cholecalciferol]
[2]; 4 months
  Muscle function, repeated sit-to-stand, change vs. baseline: 0.30 s
  Muscle function, timed-up-and-go, change vs. baseline: -0.46 s
[3]; 50 μg/kg/bw each, gavage twice, 7 days hindlimb unloading, Affymetrix Mouse 430-2
  Differentially expressed probe sets for genes against HU control group: 385
[3]; Venn overlap, FIG. 2 / FIG. 3
  Number of the group's differentially expressed probe sets also differentially expressed in 25-OH D3+Vitamin D3 group: 177
  Share of the group's differentially expressed probe sets also differentially expressed in 25-OH D3+Vitamin D3 group: ~46%
[3]; gastrocnemius, microarray signal, HU control 749
  Expression pattern Myosin, light chain kinase (Mylk): 786
[3]; gastrocnemius, microarray signal, HU control 1179
  Expression pattern Tropomyosin 1 (Tpm1): 2199
[3]; gastrocnemius, microarray signal, HU control 11353
  Expression pattern Titin (Tnt): 11354
[3]; gastrocnemius, microarray signal, HU control 84697
  Expression pattern Myomesin 1 (Myom 1): 99099
[3]
  Differentially expressed muscle genes compared to HU: Desmin; myoneurin; tropomyosin 1, alpha; tropomyosin
[4]
  Muscle strength, knee extension (best value), change vs. baseline: −24.8 Newton
  Muscle strength, knee extension (mean value), change vs. baseline: −23.7 Newton
  Muscle strength, knee flexion (best value), change vs. baseline: 2.4 Newton
  Muscle strength, knee flexion (mean value), change vs. baseline: 3.6 Newton
